# Test results from US20250304990A1, “HERBICIDE RESISTANCE” (SYNGENTA CROP PROTECTION AG, priority 2021, published 2025).
# Values joined by “and” are separate entries in the source; they are usually repeats but may differ in a detail not shown here. Equal entries are not always repeated.
# How the values were obtained:
# [1] = system: D4424 (WT Oryza sativa HST) containing tobacco plant; experiment: Herbicide damage score after spraying, Example 4; format: in vivo; details: for Average percentage damage: D4424, mutation n.a., averaged across transgenic population; for tolerance to herbicide: overexpression of Oryza sativa HST gene (SEQ ID NO.18) in tobacco
# Experimental: (§1) In order to determine if the newly discovered mutations detailed in Example 1 confer resistance to HST inhibiting compounds when expressed in plants, GM tobacco lines were produced and tested with HST inhibiting compounds. Transgenic tobacco plants expressing the Oryza sativa HST gene with and without mutations were tested.
# (§2) Populations of transgenic tobacco comprising 20-30 transgenic events per plant transformation constructs were generated as described in Example 2. These lines were clonally propagated and 1 clone per event was sprayed with 500, 100 or 50 g ai/ha of compound 1+0.2% (w/v) Genapol X080 with a spray volume of 200 L/Ha. (“g ai/ha” refers to grams of active compound per hectare).
# (§3) Herbicidal damage was visually assessed across the population and a herbicide damage score given at 7 and 14 days. A score of 0 indicates no visible damage or stunting whereas a score of 100 indicates a complete death of the plant. 20 transgenic events (i.e. individual transgenic plants) from each GM tobacco line were transplanted to soil 1 week prior to spraying with HST inhibiting compounds. WT tobacco was included as a control. The mutated genes are identified in Table 16 below.
# (§4) The values in Tables 17 to 23 below refer to percentage of damage to the tested plants and show the damage scores for 20 populations of plants expressing either Oryza sativa WT HST gene (SEQ ID NO. 18), the Oryza sativa HST mutated gene according to SEQ ID NO. 47, the Oryza sativa HST mutated gene according to SEQ ID NO. 48, the Oryza sativa HST mutated gene according to SEQ ID NO. 49, the Oryza sativa HST mutated gene according to SEQ ID NO. 50, or the Oryza sativa HST mutated gene according to SEQ ID NO. 51. A control population of wild-type Samsun tobacco was also assessed for herbicide damage. […] However the mutated versions of the HST gene carrying the F262I, V263A, […], or F266L mutations (SEQ ID NOs: 47, 48, 50 or 51) clearly display increased tolerance.
# [2] = system: D4426 (V263A mutant Oryza sativa HST) containing tobacco plant; experiment: Herbicide damage score after spraying, Example 4; format: in vivo; details: for Average percentage damage: D4426 V263A, averaged across transgenic population
# Experimental: as §1, §2, §3, §4
# [3] = system: D4425 (F262I mutant Oryza sativa HST) containing tobacco plant; experiment: Herbicide damage score after spraying, Example 4; format: in vivo; details: averaged across transgenic population
# Experimental: as §1, §2, §3, §4
# [4] = system: WT tobacco; experiment: Herbicide damage score after spraying, Example 4; format: in vivo; details: WT tobacco (Example 4), per plant
# Experimental: as §1, §2, §3, §4
# [5] = system: D4429 (F266L mutant Oryza sativa HST) containing tobacco plant; experiment: Herbicide damage score after spraying, Example 4; format: in vivo; details: averaged across transgenic population
# Experimental: as §1, §2, §3, §4
# [6] = system: D4427 (T264N mutant Oryza sativa HST) containing tobacco plant; experiment: Herbicide damage score after spraying, Example 4; format: in vivo; details: for percentage of damage: D4427 OsHST V003 T264N, per event; for Average percentage damage: D4427 T264N, averaged across transgenic population
# Experimental: as §1, §2, §3, §4
# [7] = system: D4428 (F266I mutant Oryza sativa HST) containing tobacco plant; experiment: Herbicide damage score after spraying, Example 4; format: in vivo; details: averaged across transgenic population
# Experimental: as §1, §2, §3, §4
# [8] = system: D4295 (F280I mutant Arabidopsis thaliana HST) containing tobacco plant; experiment: Herbicide damage score after spraying, Example 3; format: in vivo; details: averaged across transgenic population
# Experimental: as §1, with “lines are to be” for “lines were”, “the Arabidopsis” for “the Oryza sativa”
# (§5) Populations of transgenic tobacco comprising 20-30 transgenic events per plant transformation constructs were generated as described in Example 2. These lines were clonally propagated and 1 clone per event was sprayed with 500, 100 or 50 g ai/ha of compound 1+0.2% Genapol X080 with a spray volume of 200 L/Ha (“g ai/ha” refers to grams of active compound per hectare).
# as §3, with “control.” for “control. The mutated genes are identified in Table 16 below.”
# (§6) The values in Tables 8 to 14 below refer to percentage of damage to the tested plants and show the damage scores for 20 populations of plants expressing either Arabidopsis WT HST gene (SEQ ID NO. 14), the Arabidopsis HST mutated gene according to SEQ ID NO. 27, the Arabidopsis HST mutated gene according to SEQ ID NO. 28, the Arabidopsis HST mutated gene according to SEQ ID NO. 29, the Arabidopsis HST mutated gene according to SEQ ID NO. 30, or the Arabidopsis HST mutated gene according to SEQ ID NO. 31. A control population of wild-type Samsun tobacco was also assessed for herbicide damage. […] However the mutated versions of the HST gene carrying the F276I, V277A, F280I or F280L mutations (SEQ ID NOs: 27, 28, 30 or 31) clearly display increased tolerance.
# [9] = system: D4294 (T278N mutant Arabidopsis thaliana HST) containing tobacco plant; experiment: Herbicide damage score after spraying, Example 3; format: in vivo; details: for percentage of damage: D4294 AraHST V003 T278N, per GM event; for Average percentage damage: D4294 T278N, averaged across transgenic population
# Experimental: as §1, with “lines are to be” for “lines were”, “the Arabidopsis” for “the Oryza sativa”
# as §5
# as §3, with “control.” for “control. The mutated genes are identified in Table 16 below.”
# as §6
# [10] = system: WT tobacco; experiment: Herbicide damage score after spraying, Example 3; format: in vivo; details: WT tobacco control, per plant
# Experimental: as §1, with “lines are to be” for “lines were”, “the Arabidopsis” for “the Oryza sativa”
# as §5
# as §3, with “control.” for “control. The mutated genes are identified in Table 16 below.”
# as §6
# [11] = system: D4292 (F276I mutant Arabidopsis thaliana HST) containing tobacco plant; experiment: Herbicide damage score after spraying, Example 3; format: in vivo; details: averaged across transgenic population
# Experimental: as §1, with “lines are to be” for “lines were”, “the Arabidopsis” for “the Oryza sativa”
# as §5
# as §3, with “control.” for “control. The mutated genes are identified in Table 16 below.”
# as §6
# [12] = system: D4291 (WT Arabidopsis thaliana HST) containing tobacco plant; experiment: Herbicide damage score after spraying, Example 3; format: in vivo; details: for Average percentage damage: D4291, mutation n.a., averaged across transgenic population; for tolerance to herbicide: overexpression of Arabidopsis HST gene (SEQ ID NO.14) in tobacco
# Experimental: as §1, with “lines are to be” for “lines were”, “the Arabidopsis” for “the Oryza sativa”
# as §5
# as §3, with “control.” for “control. The mutated genes are identified in Table 16 below.”
# as §6
# [13] = system: D4293 (V277A mutant Arabidopsis thaliana HST) containing tobacco plant; experiment: Herbicide damage score after spraying, Example 3; format: in vivo; details: averaged across transgenic population
# Experimental: as §1, with “lines are to be” for “lines were”, “the Arabidopsis” for “the Oryza sativa”
# as §5
# as §3, with “control.” for “control. The mutated genes are identified in Table 16 below.”
# as §6
# [14] = system: Cf-496-19; experiment: Dose response test, growth in 96-well plates; format: cell-based, Chlorella fusca; details: Cf-496-19 (F275I); 2-fold dilutions from 100 ppm
# Experimental: (§7) Dose response tests with B5U were set-up in 96-well, flat bottomed plates. 200 μl medium was used in each well. 2 μl of 6 day old culture was added to each well, then 2 μl of DMSO or dilution of test compound were added to respective wells. 2-fold dilutions starting at 100 ppm were used per well. Plates were incubated at 25° C., 50 μmol/m^2/s, 16 hour photoperiod.
# (§8) This was assessed by a visual inspection of growth in the 96-well plate. The inhibitor concentration at which no growth is observed is then defined as the LD.
# (§9) Starting dose was 100 ppm and decreasing with 2-fold dilutions with C. fusca wt, the five HST mutants and the 10 compounds to which the wt is sensitive. Plates were incubated at 25° C., 50 μmol/m2/s, 16 hour photoperiod.
# [15] = system: Cf-496-15; experiment: Dose response test, growth in 96-well plates; format: cell-based, Chlorella fusca; details: Cf-496-15 (T277N); 2-fold dilutions from 100 ppm
# Experimental: as §7, §8, §9
# [16] = system: Cf WT; experiment: Dose response test, growth in 96-well plates; format: cell-based, Chlorella fusca; details: Cf WT; 2-fold dilutions from 100 ppm
# Experimental: as §7, §8, §9
# [17] = system: Cf-496-8; experiment: Dose response test, growth in 96-well plates; format: cell-based, Chlorella fusca; details: Cf-496-8 (M278L_F279I); 2-fold dilutions from 100 ppm
# Experimental: as §7, §8, §9
# [18] = system: Cf-496-28; experiment: Dose response test, growth in 96-well plates; format: cell-based, Chlorella fusca; details: Cf-496-28 (V276A); 2-fold dilutions from 100 ppm
# Experimental: as §7, §8, §9
# [19] = system: Cf-496-94; experiment: Dose response test, growth in 96-well plates; format: cell-based, Chlorella fusca; details: Cf-496-94 (F275L); 2-fold dilutions from 100 ppm
# Experimental: as §7, §8, §9
smiles,measurement,setting,value
"Cc1nn(C)c(=O)c(-c2c(F)ccc(Cl)c2CCc2ccnc(F)c2)c1O [B5a, 4-[3-chloro-6-fluoro-2-[2-(2-fluoro-4-pyridyl)ethyl]phenyl]-5-hydroxy-2,6-dimethyl-pyridazin-3-one]",Average percentage damage,[1]; T2 B5a 100 gai/ha,93%
same,percentage of damage,"[1]; T2 B5a 100 gai/ha, D4424 pBin TMV OsHST, per event",90% and 96% and 95% and 97% and 98% and 85% and 80%
same,tolerance to herbicide,[1],does not increase tolerance
same,Average percentage damage,[2]; T2 B5a 100 gai/ha,22%
same,Average percentage damage,[3]; T2 B5a 100 gai/ha,69%
same,percentage of damage,[4]; T2 B5a 100 gai/ha,90% and 95%
same,Average percentage damage,[5]; T2 B5a 100 gai/ha,42%
same,percentage of damage,[6]; T2 B5a 100 gai/ha,95% and 98% and 80% and 97% and 96% and 99% and 100%
same,Average percentage damage,[6]; T2 B5a 100 gai/ha,96%
same,Average percentage damage,[7]; T2 B5a 100 gai/ha,75%
same,Average percentage damage,[8]; T2 B5a 100 gai/ha,60%
same,percentage of damage,[9]; T2 B5a 100 gai/ha,100% and 95% and 90% and 99%
same,Average percentage damage,[9]; T2 B5a 100 gai/ha,96%
same,percentage of damage,[10]; T2 B5a 100 gai/ha,95% and 90% and 85%
same,Average percentage damage,[11]; T2 B5a 100 gai/ha,45%
same,Average percentage damage,[12]; T2 B5a 100 gai/ha,89%
same,tolerance to herbicide,[12],does not increase tolerance
same,Average percentage damage,[13]; T2 B5a 100 gai/ha,28%
"Cc1nn(C)c(=O)c(-c2c(F)ccc(Cl)c2CCc2cnn(C)c2)c1O [B5b, 4-[3-chloro-6-fluoro-2-[2-(1-methylpyrazol-4-yl)ethyl]phenyl]-5-hydroxy-2,6-dimethyl-pyridazin-3-one]",Average percentage damage,[1]; T3 B5b 100 gai/ha,82%
same,tolerance to herbicide,[1],does not increase tolerance
same,percentage of damage,"[2]; T3 B5b 100 gai/ha, D4426 OsHST V002 V263A, per event",5% and 0% and 10% and 3%
same,Average percentage damage,[2]; T3 B5b 100 gai/ha,4%
same,Average percentage damage,[3]; T3 B5b 100 gai/ha,36%
same,percentage of damage,[4]; T3 B5b 100 gai/ha,95% and 96% and 97% and 93% and 90%
same,Average percentage damage,[5]; T3 B5b 100 gai/ha,18%
same,percentage of damage,[6]; T3 B5b 100 gai/ha,96% and 98% and 95% and 97% and 99% and 90%
same,Average percentage damage,[6]; T3 B5b 100 gai/ha,96%
same,Average percentage damage,[7]; T3 B5b 100 gai/ha,34%
same,Average percentage damage,[8]; T3 B5b 100 gai/ha,29%
same,percentage of damage,[9]; T3 B5b 100 gai/ha,100% and 75% and 95% and 98% and 99% and 90%
same,Average percentage damage,[9]; T3 B5b 100 gai/ha,95%
same,percentage of damage,[10]; T3 B5b 100 gai/ha,90% and 95%
same,Average percentage damage,[11]; T3 B5b 100 gai/ha,26%
same,Average percentage damage,[12]; T3 B5b 100 gai/ha,47%
same,tolerance to herbicide,[12],does not increase tolerance
same,Average percentage damage,[13]; T3 B5b 100 gai/ha,15%
"Cc1nn(C)c(=O)c(-c2c(F)ccc(Cl)c2CCc2ccccc2C(F)(F)F)c1O [B5m, 4-[3-chloro-6-fluoro-2-[2-[2-(trifluoromethyl)phenyl]ethyl]phenyl]-5-hydroxy-2,6-dimethyl-pyridazin-3-one]",dose response to HST inhibiting compounds,[14],>100 ppm
same,dose response to HST inhibiting compounds,[15],>100 ppm
same,dose response to HST inhibiting compounds,[16],12.5 ppm
same,dose response to HST inhibiting compounds,[17],>100 ppm
same,dose response to HST inhibiting compounds,[18],>100 ppm
same,dose response to HST inhibiting compounds,[19],>100 ppm
"Cc1nc2ccc(CCc3c(Cl)ccc(F)c3-c3c(O)c(C)nn(C)c3=O)cc2o1 [B8a, 4-[3-chloro-6-fluoro-2-[2-(2-methyl-1,3-benzoxazol-6-yl)ethyl]phenyl]-5-hydroxy-2,6-dimethyl-pyridazin-3-one]",Average percentage damage,[1]; T4 B8a 50 gai/ha,36%
same,tolerance to herbicide,[1],does not increase tolerance
same,Average percentage damage,[2]; T4 B8a 50 gai/ha,14%
same,Average percentage damage,[3]; T4 B8a 50 gai/ha,28%
same,percentage of damage,[4]; T4 B8a 50 gai/ha,95% and 96%
same,Average percentage damage,[5]; T4 B8a 50 gai/ha,22%
same,Average percentage damage,[6]; T4 B8a 50 gai/ha,46%
same,Average percentage damage,[7]; T4 B8a 50 gai/ha,27%
same,Average percentage damage,[8]; T4 B8a 50 gai/ha,30%
same,Average percentage damage,[9]; T4 B8a 50 gai/ha,90%
same,percentage of damage,[10]; T4 B8a 50 gai/ha,85% and 95% and 90%
same,Average percentage damage,[11]; T4 B8a 50 gai/ha,33%
same,Average percentage damage,[12]; T4 B8a 50 gai/ha,64%
same,tolerance to herbicide,[12],does not increase tolerance
same,Average percentage damage,[13]; T4 B8a 50 gai/ha,16%
